Values joined by “and” are separate entries in the source; they are usually repeats but may differ in a detail not shown here. Identical values can stand only once.
Details: Transpiration method

c1ccc(-c2ccccc2)cc1 [biphenyl]
Details | vapor or sublimation pressure
295.4 K, Crystal | 0.00091 kPa
298.2 K, Crystal | 0.00126 kPa
303.3 K, Crystal | 0.00236 kPa
308.2 K, Crystal | 0.00383 kPa
313.2 K, Crystal | 0.00653 kPa
315.4 K, Crystal | 0.00777 kPa
318.3 K, Crystal | 0.01045 kPa
323.5 K, Crystal | 0.01637 kPa
325.8 K, Crystal | 0.02135 kPa
328.4 K, Crystal | 0.02749 kPa
331.3 K, Crystal | 0.03389 kPa
333.4 K, Crystal | 0.0404 kPa
335.8 K, Crystal | 0.04928 kPa
338.4 K, Crystal | 0.06189 kPa
345.7 K, Liquid | 0.1041 kPa
347.7 K, Liquid | 0.1176 kPa
348.3 K, Liquid | 0.1226 kPa
350.4 K, Liquid | 0.1376 kPa
353.3 K, Liquid | 0.1597 kPa
358.3 K, Liquid | 0.2153 kPa
363.3 K, Liquid | 0.2837 kPa
368.2 K, Liquid | 0.3498 kPa and 0.3659 kPa
373.1 K, Liquid | 0.4791 kPa
375.4 K, Liquid | 0.5425 kPa
376.2 K, Liquid | 0.5682 kPa

Reference: the NIST ThermoML archive (doi:10.1016/j.jct.2018.02.025)
